From patent US20120101093A1, “SUBSTITUTED IMIDAZO[1,2-A]PYRIDINE DERIVATIVES, PHARMACEUTICAL COMPOSITIONS, AND METHODS OF USE AS BETA-SECRETASE INHIBITORS” (HIGH POINT PHARMACEUTICALS, LLC, priority 2009, published 2012)

Key:
[1] = target: T1, BACE-1 enzyme (Homo sapiens, UniProt P56817); assay: BACE Fluorescence Resonance Energy Transfer (FRET) Assay; format: biochemical; conditions: pH 4-4.5, 30 min pre-incubation, about 1.5 hours reaction
T1 construct: purchased R & D Systems 931AS
Outline: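 Fluorescence (ex 540, em 585 nm) after ~1.5 h room-temperature cleavage of a quenched rhodamine peptide tracks BACE-1 activity. Enzyme and compound first sit 30 min in pH 4-4.5 acetate buffer with CHAPS, Triton X-100, EDTA, 7.5% DMSO. Values given as IC50 or % inhibition.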

[2] = test system: Aβ1-40 secreted from HEK293 cells stably expressing wildtype human APP695 protein (HEK-APPwt cells); assay: Aβ Cell Based Assay (Aβ1-40 secretion, ELISA); conditions: Homo sapiens, HEK293, 6 h, 6 hours incubation, reduction of Aβ1-40 secretion
Procedure: Aβ Cell Based Assay Procedure
In the following assay, the proteolytic activity of BACE in cells exposed to varying concentrations of a compound of interest is measured by observing the amount of Aβ1-40 secreted from HEK293 cells (Human Embryonic Kidney epithelial cell line) stably expressing wildtype human APP695 protein (HEK-APPwt cells).
HEK-APPwt cells were grown in high glucose DMEM (Dulbecco's Modified Eagles Medium SIGMA Cat.# D5796) supplemented with 25 mM HEPES (4-(2-hydroxyethyl)-1-piperazineethanesulfonic acid) (pH 7.4) (Invitrogen Cat.# 15630-114), 0.1 mM NEAA (Non-essential Amino Acids) (BioWhittaker Cat. #13-114E), 10% fetal bovine serum (SIGMA Cat. #F4135) and 250 μg/mL hygromycin (Invitrogen Cat. #10687-010) in T-225 flasks at 37° C. with 5% CO2 and humidity control.
Test compounds were initially prepared in DMSO and diluted with DMEM media containing 2% FBS (Fetal bovine serum). Ten standard compound solutions were prepared having a range of concentrations. The standard compound solutions were used to determine the EC50 of the test compound. The range of concentrations chosen may depend on the compound's predicted potency.
To prepare the cells for the assay, a flask containing HEK-APPwt cells were trypsinized briefly (1 mL trypsin), and once the cells detached, 4 mL of 10% FBS-DMEM was added to the flask. The detached cells were centrifuged at 900 rpm for 5 min to form a pellet.
The HEK-APPwt cell pellet was re-suspended with 10 mL DMEM media containing 2% FBS. 80 μL of the cell suspension was added to each well of a 96-well cell culture plate to give 100×10^4cells/ml. 10 μL of a standard compound solution was added to each well of the 96-well cell culture plate followed by 10 μL of Alamar blue solution. The cells were incubated at 37° C. in a 5% CO2 incubator for 6 hours.
At the end of the incubation, the plates were removed from incubator, and the supernatant was collected. A≈1-40 concentration in the medium was measured by using a commercial Aβ1-X ELISA kit (IBL, Japan Cat. #27729). Briefly, the ELISA plates were coated with an anti-human AO (N)(82E1) mouse IgG monoclonal antibody. A horseradish peroxidase conjugated anti-human Aβ11-28 mouse IgG monoclonal antibody was used for detection. The cell culture supernatant was diluted with EIA buffer +protease inhibitors (kit buffer containing protease inhibitors (1 mL PI/30 mL buffer)). A 100 μL aliquot of the diluted supernatant was added to each well of the ELISA plate and incubated for 6 hrs at 4° C. The ELISA plate was washed 8 times with phosphate buffered saline (PBS) containing 0.05% Tween 20.
A 100 μL of detection antibody was then added and incubated for 1 hour at 4° C. The plate was washed 8 times with PBS buffer containing 0.05% Tween 20 followed by addition of 100 μL of the chromogen tetramethylbenzidine (TMB). The plate was incubated in the dark at room temperature for about 30 min and a stop solution (1N H2SO4) was added.
The intensity of the color developed was measured at 450 nm. The optical density at 450 nm (OD450) is proportional to the concentration of human Aβ1-40 secreted by the cell. As a reference, N-[N-(3,5-difluorophenacetyl-L-alanyl)]-S-phenylglycine t-butyl ester (DAPT, a γ-secretase inhibitor) was used to indicate 100% inhibition of BACE activity. Thus, the assay measures the ability of a compound of interest to reduce Aβ1-40 secretion. For select compounds, compound potency is reported in Table 3 as the EC50 by calculating the percent inhibition at all concentration levels and the data were fit with non-linear curve fitting algorithm using GraphPad Prism.

T1 sequence (P56817 46-457 limits assumed): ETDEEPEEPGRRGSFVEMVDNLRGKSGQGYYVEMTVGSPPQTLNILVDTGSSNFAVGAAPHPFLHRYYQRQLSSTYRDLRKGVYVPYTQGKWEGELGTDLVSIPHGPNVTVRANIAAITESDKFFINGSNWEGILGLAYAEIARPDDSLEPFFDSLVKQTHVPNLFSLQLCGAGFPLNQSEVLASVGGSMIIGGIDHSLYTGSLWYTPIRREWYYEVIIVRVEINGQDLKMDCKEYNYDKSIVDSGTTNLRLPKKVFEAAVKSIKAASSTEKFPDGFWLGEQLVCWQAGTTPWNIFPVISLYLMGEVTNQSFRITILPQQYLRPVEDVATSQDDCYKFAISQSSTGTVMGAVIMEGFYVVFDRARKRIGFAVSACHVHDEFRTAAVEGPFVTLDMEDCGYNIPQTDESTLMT

| Structure (SMILES) | IC50 [1] | EC50 [2] |
| --- | --- | --- |
| O=C(Nc1nc2cc(-c3cccc(C(F)(F)F)c3)ccc2[nH]1)c1cn2c(CO)cccc2n1 [Example 161, 5-Hydroxymethyl-imidazo[1,2-a]pyridine-2-carboxylic acid [5-(3-trifluoromethyl-phenyl)-1H-benzoimidazol-2-yl]-amide] | 0.52 µM | 2.87 µM |
| O=C(Nc1nc2cc(-c3cccc(C(F)(F)F)c3)ccc2[nH]1)c1cn2c(CNCCN3CCOCC3)cccc2n1 [Example 169, 5-[(2-Morpholin-4-yl-ethylamino)-methyl]-imidazo[1,2-a]pyridine-2-carboxylic acid [5-(3-trifluoromethyl-phenyl)-1H-benzoimidazol-2-yl]-amide] | 0.42 µM | 5.23 µM |
| Cc1cccc2nc(C(=O)Nc3nc4cc(-c5ccc(Cl)c(C(F)(F)F)c5)ccc4[nH]3)cn12 [Example 47, 5-Methyl-imidazo[1,2-a]pyridine-2-carboxylic acid [5-(4-chloro-3-trifluoromethyl-phenyl)-1H-benzoimidazol-2-yl]-amide] | 0.42 µM | 0.08 µM |
| O=C(Nc1nc2cc(OCc3cc(F)cc(Cl)c3)ccc2[nH]1)c1cn2cc(Cl)ccc2n1 [Example 19, 6-Chloro-imidazo[1,2-a]pyridine-2-carboxylic acid [5-(3-chloro-5-fluoro-benzyloxy)-1H-benzoimidazol-2-yl]-amide] | 0.23 µM |  |
| Cc1cccc2nc(C(=O)Nc3nc4cc(-c5cnn(C)c5)ccc4[nH]3)cn12 [Example 41, 5-Methyl-imidazo[1,2-a]pyridine-2-carboxylic acid [5-(1-methyl-1H-pyrazol-4-yl)-1H-benzoimidazol-2-yl]-amide] | 3.06 µM |  |
| O=C(Nc1nc2cc(-c3cc(F)cc(Cl)c3)ccc2[nH]1)c1cn2c(N3CC[C@H](O)C3)cccc2n1 [Example 155, 5-((S)-3-Hydroxy-pyrrolidin-1-yl)-imidazo[1,2-a]pyridine-2-carboxylic acid [5-(3-chloro-5-fluoro-phenyl)-1H-benzoimidazol-2-yl]-amide] | 0.25 µM |  |
| O=C(Nc1nc2cc(-c3cccc(C(F)(F)F)c3)ccc2[nH]1)c1cn2c(CN3CCCC3)cccc2n1 [Example 175, 5-Pyrrolidin-1-ylmethyl-imidazo[1,2-a]pyridine-2-carboxylic acid [5-(3-trifluoromethyl-phenyl)-1H-benzoimidazol-2-yl]-amide] | 0.49 µM |  |
| Cc1c(OCCO)ccc2nc(C(=O)Nc3nc4cc(-c5cccc(C(F)(F)F)c5)ccc4[nH]3)cn12 [Example 7, 6-(2-Hydroxy-ethoxy)-5-methyl-imidazo[1,2-a]pyridine-2-carboxylic acid [5-(3-trifluoromethyl-phenyl)-1H-benzoimidazol-2-yl]-amide] | 0.1 µM |  |
| Cc1cc(OCCN(C)C)c2nc(C(=O)Nc3nc4cc(-c5cc(F)cc(Cl)c5)ccc4[nH]3)cn2c1 [Example 146, 8-(2-Dimethylamino-ethoxy)-6-methyl-imidazo[1,2-a]pyridine-2-carboxylic acid [5-(3-chloro-5-fluoro-phenyl)-1H-benzoimidazol-2-yl]-amide] | 0.32 µM |  |
| Cc1cccn2cc(C(=O)Nc3nc4cc(N5CCC(c6ccccc6)CC5)ccc4[nH]3)nc12 [Example 37, 8-Methyl-imidazo[1,2-a]pyridine-2-carboxylic acid [5-(4-phenyl-piperidin-1-yl)-1H-benzoimidazol-2-yl]-amide] | 1.8 µM |  |
| Cc1cccn2cc(C(=O)Nc3nc4cc(-c5cccc(S(C)(=O)=O)c5)ccc4[nH]3)nc12 [Example 75, 8-Methyl-imidazo[1,2-a]pyridine-2-carboxylic acid [5-(3-methanesulfonyl-phenyl)-1H-benzoimidazol-2-yl]-amide] | 2.07 µM |  |
| CN1CCN(c2cc(F)cn3cc(C(=O)Nc4nc5cc(-c6cccc(OC(F)(F)F)c6)ccc5[nH]4)nc23)CC1 [Example 135, 6-Fluoro-8-(4-methyl-piperazin-1-yl)-imidazo[1,2-a]pyridine-2-carboxylic acid [5-(3-trifluoromethoxy-phenyl)-1H-benzoimidazol-2-yl]-amide] | 0.2 µM |  |
| CO[C@H]1CCN(c2ccc3nc(C(=O)Nc4nc5cc(-c6cccc(Cl)c6)ccc5[nH]4)cn3c2)C1 [Example 233, 6-((S)-3-Methoxy-pyrrolidin-1-yl)-imidazo[1,2-a]pyridine-2-carboxylic acid [5-(3-chloro-phenyl)-1H-benzoimidazol-2-yl]-amide] | 0.41 µM |  |
| O=C(O)c1ccn2cc(C(=O)Nc3nc4cc(-c5cc(F)cc(Cl)c5)ccc4[nH]3)nc2c1 [Example 244, 2-[5-(3-Chloro-5-fluoro-phenyl)-1H-benzoimidazol-2-ylcarbamoyl]-imidazo[1,2-a]pyridine-7-carboxylic acid] | 3.64 µM |  |
| CC(C)CN(C)Cc1cccc2nc(C(=O)Nc3nc4cc(-c5cccc(C(F)(F)F)c5)ccc4[nH]3)cn12 [Example 191, 5-[(Isobutyl-methyl-amino)-methyl]-imidazo[1,2-a]pyridine-2-carboxylic acid [5-(3-trifluoromethyl-phenyl)-1H-benzoimidazol-2-yl]-amide] | 1.53 µM |  |
| O=C(Nc1nc2cc(-c3cc(F)cc(Cl)c3)ccc2[nH]1)c1cn2cc(F)cc(OCCN3CCOCC3)c2n1 [Example 145, 6-Fluoro-8-(2-morpholin-4-yl-ethoxy)-imidazo[1,2-a]pyridine-2-carboxylic acid [5-(3-chloro-5-fluoro-phenyl)-1H-benzoimidazol-2-yl]-amide] | 0.52 µM |  |
| CN(Cc1ccccc1)Cc1cccc2nc(C(=O)Nc3nc4cc(-c5cccc(C(F)(F)F)c5)ccc4[nH]3)cn12 [Example 190, 5-[(Benzyl-methyl-amino)-methyl]-imidazo[1,2-a]pyridine-2-carboxylic acid [5-(3-trifluoromethyl-phenyl)-1H-benzoimidazol-2-yl]-amide] | 1.28 µM |  |
| Cc1cccc2nc(C(=O)Nc3nc4cc(-c5ccncc5)ccc4[nH]3)cn12 [Example 38, 5-Methyl-imidazo[1,2-a]pyridine-2-carboxylic acid (5-pyridin-4-yl-1H-benzoimidazol-2-yl)-amide] | 3.14 µM |  |
| CO[C@H]1CCN(c2cc(F)cn3cc(C(=O)Nc4nc5cc(-c6cc(F)cc(Cl)c6)ccc5[nH]4)nc23)C1 [Example 159, 6-Fluoro-8-((S)-3-methoxy-pyrrolidin-1-yl)-imidazo[1,2-a]pyridine-2-carboxylic acid [5-(3-chloro-5-fluoro-phenyl)-1H-benzoimidazol-2-yl]-amide] | 0.34 µM |  |
| Cc1cccc2nc(C(=O)Nc3nc4cc(-c5cc(Cl)cc(C(F)(F)F)c5)ccc4[nH]3)cn12 [Example 66, 5-Methyl-imidazo[1,2-a]pyridine-2-carboxylic acid [6-(3-chloro-5-trifluoromethyl-phenyl)-1H-benzoimidazol-2-yl]-amide] | 0.28 µM |  |
| O=C(Nc1nc2cc(-c3cccc(C(F)(F)F)c3)ccc2[nH]1)c1cn2c(C3CCNCC3)cccc2n1 [Example 218, 5-(piperidin-4-yl)-N-{5-[3-(trifluoromethyl)phenyl]-1H-benzimidazol-2-yl}imidazo[1,2-a]pyridine-2-carboxamide] | 0.45 µM |  |
| CCOc1cccc2nc(C(=O)Nc3nc4cc(-c5cccc(C(F)(F)F)c5)ccc4[nH]3)cn12 [Example 137, 5-Ethoxy-imidazo[1,2-a]pyridine-2-carboxylic acid [5-(3-trifluoromethyl-phenyl)-1H-benzoimidazol-2-yl]-amide] | 1.39 µM |  |
